Test results published in paper PMC9794710, “Introduction of benzyloxy pharmacophore into aryl/heteroaryl chalcone motifs as a new class of monoamine oxidase B inhibitors” (Scientific Reports, 2022).
Like-named read-outs stand apart in the source and are kept apart here.

Key:
hMAO-A = target: T1, hMAO-A (Homo sapiens, UniProt P21397); experiment: hMAO-A inhibitory activity assay (recombinant enzyme, kynuramine substrate); format: biochemical; settings: kynuramine 0.06 mM; for remaining activity at 10 µM: 10 µM compound, read-out: Residual activity at 10 µM (%) hMAO-A
T1 construct: purchased Sigma-Aldrich (St. Louis, MO, USA)
T1 sequence (P21397 1-527): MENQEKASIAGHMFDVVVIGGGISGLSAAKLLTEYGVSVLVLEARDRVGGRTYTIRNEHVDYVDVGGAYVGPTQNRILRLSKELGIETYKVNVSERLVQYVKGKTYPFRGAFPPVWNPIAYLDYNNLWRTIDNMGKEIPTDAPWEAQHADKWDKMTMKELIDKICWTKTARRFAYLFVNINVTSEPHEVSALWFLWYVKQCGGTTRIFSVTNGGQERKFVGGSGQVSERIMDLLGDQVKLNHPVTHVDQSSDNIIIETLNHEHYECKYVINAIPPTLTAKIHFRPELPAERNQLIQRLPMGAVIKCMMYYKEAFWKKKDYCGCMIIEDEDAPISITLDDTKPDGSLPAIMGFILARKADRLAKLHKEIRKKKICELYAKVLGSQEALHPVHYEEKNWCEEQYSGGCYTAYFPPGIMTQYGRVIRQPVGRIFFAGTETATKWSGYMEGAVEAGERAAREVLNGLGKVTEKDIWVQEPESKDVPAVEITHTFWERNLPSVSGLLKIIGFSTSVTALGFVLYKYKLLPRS

hMAO-B [1] = target: T2, hMAO-B (Homo sapiens, UniProt P27338)
T2 sequence (P27338 1-520): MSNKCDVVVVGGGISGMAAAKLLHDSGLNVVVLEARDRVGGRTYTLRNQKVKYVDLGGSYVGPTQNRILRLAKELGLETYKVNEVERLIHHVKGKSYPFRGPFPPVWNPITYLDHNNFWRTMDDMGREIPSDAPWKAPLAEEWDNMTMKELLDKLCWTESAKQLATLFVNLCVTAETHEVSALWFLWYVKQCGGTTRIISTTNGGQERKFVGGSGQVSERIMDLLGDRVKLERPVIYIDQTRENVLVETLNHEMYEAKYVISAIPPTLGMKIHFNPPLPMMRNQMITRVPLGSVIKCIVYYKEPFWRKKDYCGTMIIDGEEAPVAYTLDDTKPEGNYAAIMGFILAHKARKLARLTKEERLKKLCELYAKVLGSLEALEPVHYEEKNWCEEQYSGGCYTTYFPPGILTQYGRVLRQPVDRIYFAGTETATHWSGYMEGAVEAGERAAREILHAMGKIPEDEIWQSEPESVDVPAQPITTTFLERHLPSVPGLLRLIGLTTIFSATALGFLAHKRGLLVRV

hMAO-B [2] = target: T2, hMAO-B; experiment: hMAO-B inhibitory activity assay (recombinant enzyme, benzylamine substrate); settings: for remaining activity at 10 µM: read-out: Residual activity at 10 µM (%) hMAO-B; for SI (selectivity index for hMAO-B as compared with hMAO-A): IC50 of hMAO-A/IC50 of hMAO-B;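 as to all read-outs here: benzylamine used at 0.3 mM as hMAO-B substrate, compounds first screened at 10 µM, hMAO-A assayed with 0.06 mM kynuramine for the selectivity ratio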
[3] = parameters: method as in PMID 26587996; settings: cited from earlier work
[4] = Parallel artificial membrane permeation assay (PAMPA) for BBB permeation; format: in vitro ADME; settings: for Papp: pH 7.4, read-out: Experimental Pe
hMAO-B [5] = target: T2, hMAO-B; experiment: Enzyme kinetic study of hMAO-B inhibition (Lineweaver–Burk and secondary plots); format: biochemical; parameters: purchased Sigma-Aldrich (St. Louis, MO, USA); settings: for Type of hMAO-B inhibition: Lineweaver–Burk plots; for Ki: secondary plots, five substrate and three inhibitor concentrations
hMAO-B [6] = target: T2, hMAO-B; experiment: Reversibility analysis of hMAO-B inhibition by dialysis; format: biochemical; parameters: purchased Sigma-Aldrich (St. Louis, MO, USA); settings: for Reversibility of hMAO-B inhibition: dialysis; for Relative activity of hMAO-B, undialyzed (AU) / Relative activity of hMAO-B, dialyzed (AD): preincubation 30 min at ~2 × IC50 (B10 0.134, B15 0.240, lazabemide 0.220, pargyline 0.280 μM); for Relative activity of hMAO-B, dialyzed (AD): after dialysis

Row | Structure (SMILES) | remaining activity at 10 µM (hMAO-A) [%] | IC50 (hMAO-A) [µM] | SI (selectivity index for hMAO-B as compared with hMAO-A) (hMAO-B [1]) | IC50 (hMAO-B [2]) [µM] | remaining activity at 10 µM (hMAO-B [2]) [%] | SI (selectivity index for hMAO-B as compared with hMAO-A) (hMAO-B [2]) | bioavailability [3] | Prediction (CNS permeation) [4] | Type of hMAO-B inhibition (hMAO-B [5]) | Ki (hMAO-B [5]) [µM] | Reversibility of hMAO-B inhibition (hMAO-B [6]) | Relative activity of hMAO-B, undialyzed (AU) (hMAO-B [6]) [%] | Relative activity of hMAO-B, dialyzed (AD) (hMAO-B [6]) [%] | Pe value [4] | Papp [4] [×10⁻⁶ cm/s]
1 | O=C(/C=C/c1ccc(OCc2ccccc2)cc1)c1ccc2c(c1)OCO2 [Compound B2] | 53.1 ± 1.58 | 13.7 ± 1.53 | 21.933 | 0.626 ± 0.296 | 23.6 ± 0.96 | – | – | – | – | – | – | – | – | – | –
2 | O=C(/C=C/c1ccccc1OCc1ccccc1)c1cccs1 [Compound B11] | 81.3 ± 2.92 | > 40 | – | 5.78 ± 2.39 | 41.2 ± 0.12 | > 6.915 | – | – | – | – | – | – | – | – | –
3 | CCOc1ccc(C(=O)/C=C/c2ccccc2OCc2ccccc2)cc1 [Compound B14] | 91.2 ± 6.2 | > 40 | – | 11.3 ± 0.331 | 51.9 ± 1.31 | > 3.525 | – | – | – | – | – | – | – | – | –
4 | C[C@H](NCc1ccc(OCc2cccc(F)c2)cc1)C(N)=O [Safinamide] | – | – | – | – | – | – | about 95% | – | – | – | – | – | – | – | –
5 | O=C(/C=C/c1ccc(OCc2ccccc2)cc1)c1ccc(C(F)(F)F)cc1 [Compound B13] | 99.1 ± 1.24 | > 40 | – | 0.255 ± 0.016 | 1.39 ± 3.27 | > 156.617 | – | – | – | – | – | – | – | – | –
6 | C#CCN(C)[C@H](C)Cc1ccccc1 [Selegiline, reference compound] | – | – | – | – | – | – | – | CNS + (Pe (10^−6 cm/s) > 4.00: CNS + (high permeation)) | – | – | – | – | – | – | –
7 | CSc1ccc(C(=O)/C=C/c2ccc(OCc3ccccc3)cc2)cc1 [Compound B7] | 58.4 ± 4.48 | 12.6 ± 0.898 | – | 0.149 ± 0.006 | 0 | 84.544 | – | – | – | – | – | – | – | – | –
8 | O=C(/C=C/c1ccccc1OCc1ccccc1)c1ccc2c(c1)OCO2 [Compound B1] | 82.6 ± 5.03 | 26.9 ± 4.16 | – | 1.44 ± 0.149 | 35.5 ± 6.05 | 18.677 | – | – | – | – | – | – | – | – | –
9 | O=C(/C=C/c1ccc(OCc2ccccc2)cc1)c1cccs1 [Compound B10] | 76.7 ± 3.22 | 33.8 ± 6.89 | – | 0.067 ± 0.005 | 0 | 504.791 | – | CNS + (Pe (10^−6 cm/s) > 4.00: CNS + (high permeation)) | competitive inhibitors of hMAO-B | 0.03 ± 0.001 | reversible inhibitors of hMAO-B | 44.29 | 77.53 | higher than 4.0 × 10^–6 cm/s | 4.93 ± 0.13
10 | O=C(/C=C/c1ccccc1OCc1ccccc1)c1ccc(C(F)(F)F)cc1 [Compound B12] | 86.7 ± 2.68 | > 40 | – | 37.6 ± 1.88 | 75.4 ± 3.6 | > 1.065 | – | – | – | – | – | – | – | – | –
11 | O=C(/C=C/c1ccccc1OCc1ccccc1)c1ccc(Br)s1 [Compound B8] | 92.45 ± 0.49 | > 40 | – | 17.9 ± 0.268 | 64.4 ± 1.5 | > 2.237 | – | – | – | – | – | – | – | – | –
12 | CS(=O)(=O)c1ccc(C(=O)/C=C/c2ccccc2OCc2ccccc2)cc1 [Compound B4] | 78.2 ± 4.32 | 29.4 ± 2.71 | – | 0.233 ± 0.11 | 16.2 ± 6.49 | 125.915 | – | – | – | – | – | – | – | – | –
13 | CCOc1ccc(C(=O)/C=C/c2ccc(OCc3ccccc3)cc2)cc1 [Compound B15] | 75.9 ± 3.1 | 34.5 ± 3.54 | – | 0.12 ± 0.01 | 0 | 287.600 | – | CNS + (Pe (10^−6 cm/s) > 4.00: CNS + (high permeation)) | competitive inhibitors of hMAO-B | 0.033 ± 0.001 | reversible inhibitors of hMAO-B | 41.68 | 78.78 | higher than 4.0 × 10^–6 cm/s | 4.09 ± 0.24
14 | CS(=O)(=O)c1ccc(C(=O)/C=C/c2ccc(OCc3ccccc3)cc2)cc1 [Compound B5] | 89.2 ± 4.47 | > 40 | – | 0.224 ± 0.082 | 0 | > 178.651 | – | – | – | – | – | – | – | – | –
15 | O=C(/C=C/c1ccc(OCc2ccccc2)cc1)c1ccc2c(c1)OCCO2 [Compound B3] | 58.3 ± 0.84 | 14.3 ± 0.203 | – | 0.261 ± 0.016 | 0 | 54.663 | – | – | – | – | – | – | – | – | –
16 | O=C(/C=C/c1ccc(OCc2ccccc2)cc1)c1ccc(Br)s1 [Compound B9] | 69.1 ± 1.54 | 24 ± 1.44 | – | 0.236 ± 0.017 | 0 | 101.551 | – | – | – | – | – | – | – | – | –
17 | CSc1ccc(C(=O)/C=C/c2ccccc2OCc2ccccc2)cc1 [Compound B6] | 92 ± 2.93 | > 40 | – | 6.55 ± 1.34 | 41.3 ± 4.9 | > 6.107 | – | – | – | – | – | – | – | – | –
